From paper PMC7083880 (Nature Communications, 2020)
Values joined by “and” are separate entries in the source; they are usually repeats but may differ in a detail not shown here. Equal values may be shown once.

Experiments:
[1] = tested on: firefly luciferase (Fluc) gene with UAA nonsense codon at position 109 in HeLa cells; assay: Firefly luciferase readthrough assay, UAA PTC construct; type: cell-based, human
CTU1 = molecular target: T1, CTU1 (Homo sapiens, UniProt Q7Z7A3); assay: UGA readthrough luciferase assay with CTU1 overexpression; type: cell-based;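 for luciferase activity, average: DAP exposure for 24 h before luciferase measurement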;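 for luciferase activity, exp2: DAP exposure for 24 h before luciferase measurement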
T1 construct: host or cells: HeLa
T1 sequence (Q7Z7A3 1-348): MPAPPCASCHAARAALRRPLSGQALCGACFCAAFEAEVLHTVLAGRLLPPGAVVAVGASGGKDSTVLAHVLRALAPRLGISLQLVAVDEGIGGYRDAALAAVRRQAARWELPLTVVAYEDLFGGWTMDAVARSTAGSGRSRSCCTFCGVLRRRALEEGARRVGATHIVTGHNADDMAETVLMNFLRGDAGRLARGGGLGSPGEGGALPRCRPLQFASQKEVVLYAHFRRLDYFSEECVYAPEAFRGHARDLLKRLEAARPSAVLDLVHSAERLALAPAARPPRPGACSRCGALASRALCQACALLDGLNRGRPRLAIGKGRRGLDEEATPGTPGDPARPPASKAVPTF
Text: Firefly luciferase from HEK293FT cells transfected with the Fluc-int-UGA construct was immunoprecipitated and digested with trypsin. The MS/MS spectrum of the peptide containing the PTC position and the sequence determination are shown. The upper red and blue sequences indicate the amino acids validated, respectively, by detection of Nter and Cter peptide fragments (b and y ion series). Peptide fragments y6 and y7 clearly identify tryptophan (W) at the PTC position. The black peaks correspond to non-attributed mass-to-charge ratio (m/z) values. […] Readthrough efficiency was determined by measuring luciferase activity in HeLa cells co-transfected with the firefly luciferase construct described in Fig. 1b and with increasing amounts of an expression vector for either FTSJ1 or CTU1 (0.5, 1, or 2 µg). The empty expression vector (E.v.) was used as control. […] The experiment was performed twice and the results of both experiments (Exp1 and Exp2) are shown. c Western blot analysis of FTSJ1 and CTU1. d 2′-O-methylation analysis of tRNA^Trp, tRNA^SER, and tRNA^GLN by RiboMethSeq. […] A molecular weight marker is indicated to the left of each gel. p-values (p) were calculated using Student’s t-test. Source data are provided as a Source Data file.
Among the enzymes modifying tRNAs liable to recognize a stop codon by extended wobbling, human FTSJ1 (TRM7 in yeast) exclusively modifies tRNAs involved in UGA readthrough. In addition to other tRNA targets, FTSJ1 methylates the cytosine at position 34 of tRNA^Trp. Inhibition of this modification could increase the capacity of tRNA^Trp to misdecode and recognize the UGA stop codon. […] FTSJ1 and CTU1 overexpression were assessed by western-blot analysis (Fig. 5c).

Nc1nc(N)c2[nH]cnc2n1 [DAP, 2,6-diaminopurine]
Luciferase activity, UAA PTC ([1]; DAP 3.75µM, average of 2 experiments): 370.75±86 and 370.75 | Luciferase activity, UAA PTC ([1]; DAP 3.75µM, experiment 1): 310 | Luciferase activity, UAA PTC ([1]; DAP 3.75µM, experiment 2): 431.5 | Luciferase activity, UAA PTC ([1]; DAP 37.5µM, average of 2 experiments): 610.75±408 and 610.75 | Luciferase activity, UAA PTC ([1]; DAP 37.5µM, experiment 1): 322.5 | Luciferase activity, UAA PTC ([1]; DAP 37.5µM, experiment 2): 899 | luciferase activity, average (CTU1; 0.5µg CTU1, 0.39µM): 1294.38 | luciferase activity, exp1 (CTU1; 0.5µg CTU1, 0.39µM): 850.5 | luciferase activity, exp1*1,5 (CTU1; 0.5µg CTU1, 0.39µM): 1275.75 | luciferase activity, exp2 (CTU1; 0.5µg CTU1, 0.39µM): 1313 | luciferase activity, average (CTU1; 0.5µg CTU1, 0.78µM): 1925.25 | luciferase activity, exp1 (CTU1; 0.5µg CTU1, 0.78µM): 1235 | luciferase activity, exp1*1,5 (CTU1; 0.5µg CTU1, 0.78µM): 1852.5 | luciferase activity, exp2 (CTU1; 0.5µg CTU1, 0.78µM): 1998 | luciferase activity, average (CTU1; 0.5µg CTU1, 1.56µM): 3744.75 | luciferase activity, exp1 (CTU1; 0.5µg CTU1, 1.56µM): 2474 | luciferase activity, exp1*1,5 (CTU1; 0.5µg CTU1, 1.56µM): 3711 | luciferase activity, exp2 (CTU1; 0.5µg CTU1, 1.56µM): 3778.5 | luciferase activity, average (CTU1; 0.5µg CTU1, 6.25µM): 19050.9 | luciferase activity, exp1 (CTU1; 0.5µg CTU1, 6.25µM): 10689.5 | luciferase activity, exp1*1,5 (CTU1; 0.5µg CTU1, 6.25µM): 16034.2 | luciferase activity, exp2 (CTU1; 0.5µg CTU1, 6.25µM): 22067.5 | luciferase activity, average (CTU1; 0.5µg CTU1, 25µM): 76730.1 | luciferase activity, exp1 (CTU1; 0.5µg CTU1, 25µM): 40518.5 | luciferase activity, exp1*1,5 (CTU1; 0.5µg CTU1, 25µM): 60777.8 | luciferase activity, exp2 (CTU1; 0.5µg CTU1, 25µM): 92682.5 | luciferase activity, average (CTU1; 0.5µg CTU1, 100µM): 153887 | luciferase activity, exp1 (CTU1; 0.5µg CTU1, 100µM): 108746 | luciferase activity, exp1*1,5 (CTU1; 0.5µg CTU1, 100µM): 163120 | luciferase activity, exp2 (CTU1; 0.5µg CTU1, 100µM): 144654 | luciferase activity, average (CTU1; 0.5µg CTU1, 300µM): 196559 | luciferase activity, exp1 (CTU1; 0.5µg CTU1, 300µM): 113240 | luciferase activity, exp1*1,5 (CTU1; 0.5µg CTU1, 300µM): 169861 | luciferase activity, exp2 (CTU1; 0.5µg CTU1, 300µM): 223256 | luciferase activity, average (CTU1; 0.5µg CTU1, 600µM): 155354 | luciferase activity, exp1 (CTU1; 0.5µg CTU1, 600µM): 75601 | luciferase activity, exp1*1,5 (CTU1; 0.5µg CTU1, 600µM): 113402 | luciferase activity, exp2 (CTU1; 0.5µg CTU1, 600µM): 197306 | luciferase activity, average (CTU1; 1µg CTU1, 0.39µM): 1209.75 | luciferase activity, exp1 (CTU1; 1µg CTU1, 0.39µM): 816 | luciferase activity, exp1*1,5 (CTU1; 1µg CTU1, 0.39µM): 1224 | luciferase activity, exp2 (CTU1; 1µg CTU1, 0.39µM): 1195.5 | luciferase activity, average (CTU1; 1µg CTU1, 0.78µM): 1705.88 | luciferase activity, exp1 (CTU1; 1µg CTU1, 0.78µM): 1099.5 | luciferase activity, exp1*1,5 (CTU1; 1µg CTU1, 0.78µM): 1649.25 | luciferase activity, exp2 (CTU1; 1µg CTU1, 0.78µM): 1762.5 | luciferase activity, average (CTU1; 1µg CTU1, 1.56µM): 3430.38 | luciferase activity, exp1 (CTU1; 1µg CTU1, 1.56µM): 2700.5 | luciferase activity, exp1*1,5 (CTU1; 1µg CTU1, 1.56µM): 4050.75 | luciferase activity, exp2 (CTU1; 1µg CTU1, 1.56µM): 2810 | luciferase activity, average (CTU1; 1µg CTU1, 6.25µM): 22021 | luciferase activity, exp1 (CTU1; 1µg CTU1, 6.25µM): 11418 | luciferase activity, exp1*1,5 (CTU1; 1µg CTU1, 6.25µM): 17127 | luciferase activity, exp2 (CTU1; 1µg CTU1, 6.25µM): 26915 | luciferase activity, average (CTU1; 1µg CTU1, 25µM): 66719.5 | luciferase activity, exp1 (CTU1; 1µg CTU1, 25µM): 39882 | luciferase activity, exp1*1,5 (CTU1; 1µg CTU1, 25µM): 59823 | luciferase activity, exp2 (CTU1; 1µg CTU1, 25µM): 73616 | luciferase activity, average (CTU1; 1µg CTU1, 100µM): 131546 | luciferase activity, exp1 (CTU1; 1µg CTU1, 100µM): 100876 | luciferase activity, exp1*1,5 (CTU1; 1µg CTU1, 100µM): 151313 | luciferase activity, exp2 (CTU1; 1µg CTU1, 100µM): 111779 | luciferase activity, average (CTU1; 1µg CTU1, 300µM): 187075 | luciferase activity, exp1 (CTU1; 1µg CTU1, 300µM): 116534 | luciferase activity, exp1*1,5 (CTU1; 1µg CTU1, 300µM): 174802 | luciferase activity, exp2 (CTU1; 1µg CTU1, 300µM): 199348 | luciferase activity, average (CTU1; 1µg CTU1, 600µM): 146715 | luciferase activity, exp1 (CTU1; 1µg CTU1, 600µM): 78978 | luciferase activity, exp1*1,5 (CTU1; 1µg CTU1, 600µM): 118467 | luciferase activity, exp2 (CTU1; 1µg CTU1, 600µM): 174963 | luciferase activity, average (CTU1; 2µg CTU1, 0.39µM): 1088.5 | luciferase activity, exp1 (CTU1; 2µg CTU1, 0.39µM): 733 | luciferase activity, exp1*1,5 (CTU1; 2µg CTU1, 0.39µM): 1099.5 | luciferase activity, exp2 (CTU1; 2µg CTU1, 0.39µM): 1077.5 | luciferase activity, average (CTU1; 2µg CTU1, 0.78µM): 1344.88 | luciferase activity, exp1 (CTU1; 2µg CTU1, 0.78µM): 885.5 | luciferase activity, exp1*1,5 (CTU1; 2µg CTU1, 0.78µM): 1328.25 | luciferase activity, exp2 (CTU1; 2µg CTU1, 0.78µM): 1361.5 | luciferase activity, average (CTU1; 2µg CTU1, 1.56µM): 2818.25 | luciferase activity, exp1 (CTU1; 2µg CTU1, 1.56µM): 1937 | luciferase activity, exp1*1,5 (CTU1; 2µg CTU1, 1.56µM): 2905.5 | luciferase activity, exp2 (CTU1; 2µg CTU1, 1.56µM): 2731 | luciferase activity, average (CTU1; 2µg CTU1, 6.25µM): 9528.62 | luciferase activity, exp1 (CTU1; 2µg CTU1, 6.25µM): 6020.5 | luciferase activity, exp1*1,5 (CTU1; 2µg CTU1, 6.25µM): 9030.75 | luciferase activity, exp2 (CTU1; 2µg CTU1, 6.25µM): 10026.5 | luciferase activity, average (CTU1; 2µg CTU1, 25µM): 42062.1 | luciferase activity, exp1 (CTU1; 2µg CTU1, 25µM): 22665.5 | luciferase activity, exp1*1,5 (CTU1; 2µg CTU1, 25µM): 33998.2 | luciferase activity, exp2 (CTU1; 2µg CTU1, 25µM): 50126 | luciferase activity, average (CTU1; 2µg CTU1, 100µM): 109330 | luciferase activity, exp1 (CTU1; 2µg CTU1, 100µM): 66277.5 | luciferase activity, exp1*1,5 (CTU1; 2µg CTU1, 100µM): 99416.2 | luciferase activity, exp2 (CTU1; 2µg CTU1, 100µM): 119244 | luciferase activity, average (CTU1; 2µg CTU1, 300µM): 143657 | luciferase activity, exp1 (CTU1; 2µg CTU1, 300µM): 87747.5 | luciferase activity, exp1*1,5 (CTU1; 2µg CTU1, 300µM): 131621 | luciferase activity, exp2 (CTU1; 2µg CTU1, 300µM): 155692 | luciferase activity, average (CTU1; 2µg CTU1, 600µM): 121237 | luciferase activity, exp1 (CTU1; 2µg CTU1, 600µM): 66046 | luciferase activity, exp1*1,5 (CTU1; 2µg CTU1, 600µM): 99069 | luciferase activity, exp2 (CTU1; 2µg CTU1, 600µM): 143406
